# According to patent publication US9359409B2, “Antimicrobial peptides, compositions comprising the same and uses thereof” (priority 2012, dated 2016):
# Read-outs that look alike come from different tables or passages of the source. Ends that are not written are not given here.
# Tests used:
# [1] = system: Pseudomonas aeruginosa; assay: MIC by broth microdilution; assay type: cell-based
# Method: (§1) The 5 designed and synthesized peptides of the invention, plus omiganan (peptide of the state of the art) were evaluated for their antimicrobial capacity in microdilution assays for determining the minimum inhibitory concentration (MIC). A first panel of 8 representative strains was analyzed in these assays, encompassing Gram positive and Gram negative bacteria. […] The lowest MIC values indicate a higher antimicrobial potency.
# (§2) Subsequently, an analysis of a panel of clinical isolates including strains with different resistance mechanisms against conventional antibiotics was carried out, all of which are of clinical relevance. […] In Table 3 the results for a panel of Gram negative bacteria are shown, and in Table 4 for a panel of […] bacteria. In these tables the detected gene/s responsible for the resistance against antibiotics for each strain, are included.
# (§3) Antimicrobial activity was analyzed by means of the determination of the MIC (minimum inhibitory concentration) by the microdilution technique. The technique was carried out in the standard fashion according to (CLSI M07-A9 Vol. 32 No 2. January 2012). The peptide concentration range used was from 0.5 μg/mL to 512 μg/mL in two-fold serial dilutions. The used medium was MH Difco broth supplemented with cations, at a final concentration of Ca^++20-25 mg/L and Mg^++10-12.5 mg/L. The working inoculum used corresponds to a 1/100 dilution of a bacterial suspension equivalent to 0.5 in the Mc Farland scale.
# [2] = system: E. coli; assay type: cell-based; details: non-amidated peptides; E. coli ATCC 25922, WT
# Method: (§4) In vitro sensitivity assay of aerobically growing bacteria, using the disc diffusion method was performed according to the standards in the M2 document of the CLSI (Clinical and Laboratory Standards Institute: Performance Standards for Antimicrobial Disk Susceptibility Tests.) using the non-amidated peptides
# (§5) In brief, intermediate solutions (10×) of the antimicrobial non-amidated peptides were prepared by serial dilutions 1:2, 1:4 and 1:8 by two-fold dilutions. Then, one part of the solution of the antimicrobial peptide 10× was added to nine parts of melted bacteriological agar. The antibiotic solution was added for each dilution, in the melted agar and cooled to 45-50° C. in a water bath. Then, the agar-antibiotic mixture was placed in a Petri dish until a 3-4 mm depth was reached. The inoculum is prepared with a turbidity of 0.5 in the McFarland scale (approximately 1-2 10^8 CFU/ml). The final inoculum required for the agar dilution test is 10^4 colony forming units (CFU) per “spot” having 5-8 mm in diameter. The inoculated plates must be incubated upside down at 35° C. for a period of 16-20 hs. MIC was recorded as the value of the lower dilution completely inhibiting bacterial development, without considering the development of a single colony or a slight film caused by the inoculum deposit. The final point in these cases will correspond to the concentration at which there is more than 80% reduction in growth as compared with the control.
# [3] = system: P. aeruginosa; assay type: cell-based
# Method: as §4, §5
# [4] = system: K. pneumoniae; assay type: cell-based; details: non-amidated peptides; K. pneumoniae M13540, KPC
# Method: as §4, §5
# [5] = system: S. aureus; assay type: cell-based; details: non-amidated peptides
# Method: as §4, §5
# [6] = system: S. cohnii; assay type: cell-based
# Method: as §4, §5
# [7] = system: S. warnerii; assay type: cell-based
# Method: as §4, §5
# [8] = system: human erythrocytes; assay: Erythrocyte hemolysis assay (cytotoxicity); assay type: cell-based; details: peptide 128 ug/ml
# Method: Subsequently, the capacity of the peptides of the invention for lysing human erythrocytes was evaluated, as a measure of their cytotoxicity (Table 2). The assays were carried out according to the Examples and are expressed as a percentage of total lysis obtained with either water or the surfactant Tween 20. In this assays, the lower hemolysis percentage, the lower expected cytotoxic activity.
# Evaluation of cytotoxic activity was performed by means of an erythrocyte hemolysis assay (according to Pure Appl. Chem., Vol. 79, No. 4, pp. 717-728, 2007). In brief, from a volume of heparinized human whole blood, 3 times that volume of PBS is added and centrifuged 10 minutes at 1500 rpm, repeating the washing two more times. 10% blood solutions in PBS were prepared with that pellet. Subsequently, each group was added the corresponding peptide at the indicated concentration and incubated at 37° C. for 30 minutes. […]
# [9] = system: Klebsiella pneumoniae
# Method: as §1, §2, §3
# [10] = system: Escherichia coli
# Method: as §1, §2, §3
# [11] = system: E. raffinosus; details: E. raffinosus M6187, resistance gene vanA
# Method: as §2, §3
# [12] = system: E. faecalis
# Method: as §2, §3
# [13] = system: S. saprophyticus
# Method: as §2, §3
# [14] = system: S. hominis
# Method: as §2, §3
# [15] = system: S. haemolyticus
# Method: as §2, §3
# [16] = system: A. baumanii
# Method: as §2, §3
# [17] = system: E. gallinarum
# Method: as §2, §3
# [18] = system: A. junii; details: A. junii M9013, resistance gene oxa-51 + imp
# Method: as §2, §3
substance,measurement,setting,value
"ILRWPWWPWRRK-NH2 [Omiganan, ILRWPWWPWRRK, reference compound]",MIC,"[1]; P. aeruginosa M5109, resistance gene vim",256 µg/mL
same,MIC,"[1]; P. aeruginosa M7723, resistance gene kpc",256 µg/mL
same,MIC,"[1]; P. aeruginosa M7907, resistance gene per",128 µg/mL
same,MIC,"[1]; P. aeruginosa M13513, resistance gene kpc",256 µg/mL
same,MIC in agar dilution,[2],>128 µg/mL
same,MIC in agar dilution,[3],>128 µg/mL
same,MIC in agar dilution,"[3]; non-amidated peptides, P. aeruginosa M13513, KPC",>128 µg/mL
same,MIC in agar dilution,[4],>128 µg/mL
same,MIC in agar dilution,"[5]; S. aureus ATCC29213, MSSA",>128 µg/mL
same,MIC in agar dilution,"[5]; S. aureus M6794, MRSA",>128 µg/mL
same,MIC in agar dilution,[6],16 µg/mL
same,MIC in agar dilution,[7],16 µg/mL
same,Hemolysis % (1% Tween20),[8]; percentage of total lysis obtained with 1% Tween20,11.6%
same,Hemolysis % (water),[8]; percentage of total lysis obtained with water,10%
same,OD 540 nm,"[8]; supernatant of human erythrocytes, 37° C., 30 minutes",0.171
same,MIC,"[9]; K. Pneumoniae M9885, resistance gene kpc",256 µg/mL
same,MIC,"[9]; K. pneumoniae M9170, resistance gene oxa-GIII",128 µg/mL
same,MIC,"[9]; K. pneumoniae M9491, resistance gene mox",128 µg/mL
same,MIC,"[9]; K. pneumoniae M13540, resistance gene kpc",256 µg/mL
same,MIC,"[10]; E. coli ABC11, resistance gene ctx-m-2",64 µg/mL
same,MIC,"[10]; E. coli Cos15, resistance gene per + tem",64 µg/mL
same,MIC,"[10]; E. coli LCA1, resistance gene ctx-m-2 + tem-1",64 µg/mL
same,MIC,"[10]; E. coli M5306, resistance gene ctx-m-2 + tem-1 + per-2",64 µg/mL
same,MIC,"[10]; E. coli M7859, resistance gene cit",64 µg/mL
same,MIC,"[10]; E. coli M9209, resistance gene kpc",64 µg/mL
same,MIC,"[10]; E. coli NEU23, resistance gene oxa-GIII + tem",32 µg/mL
same,MIC,[11],4 µg/mL
same,MIC,[12],128 µg/mL
same,MIC,"[12]; E. faecalis ATCC 51299, resistance gene vanB",256 µg/mL
same,MIC,"[12]; E. faecalis M4449, resistance gene vanA",128 µg/mL
same,MIC,"[12]; E. faecalis M4899, resistance gene vanB",256 µg/mL
same,MIC,"[12]; E. faecalis M4992, resistance gene vanA",128 µg/mL
same,MIC,"[12]; E. faecalis M6383, resistance gene vanA",128 µg/mL
same,MIC,"[12]; E. faecalis M6534, resistance gene vanB",256 µg/mL
same,MIC,"[12]; E. faecalis M6983, resistance gene vanA",128 µg/mL
same,MIC,[13],8 µg/mL
same,MIC,[14],4 µg/mL
same,MIC,[15],4 µg/mL
same,MIC,"[16]; A. baumanii FAV-1, resistance gene per + oxa-51 + oxa-58",64 µg/mL
same,MIC,"[16]; A. baumanii M5179, resistance gene oxa-51",64 µg/mL
same,MIC,"[16]; A. baumanii M5277, resistance gene per",32 µg/mL
same,MIC,"[16]; A. baumanii M5282, resistance gene oxa-51",16 µg/mL
same,MIC,"[16]; A. baumanii M7489, resistance gene oxa-51 + tem",32 µg/mL
same,MIC,"[16]; A. baumanii M7978, resistance gene imp",64 µg/mL
same,MIC,"[16]; A. baumanii M9665, resistance gene oxa-51",64 µg/mL
same,MIC,"[16]; A. baumanii M13523, resistance gene oxa-51",64 µg/mL
same,MIC,"[17]; E. gallinarum M2685, resistance gene vanC1 + vanA",16 µg/mL
same,MIC,"[17]; E. gallinarum M2723, resistance gene vanC1 + vanA",16 µg/mL
same,MIC,[18],64 µg/mL
